Source: ChEMBL document CHEMBL3739323, “Design, synthesis, and biological evaluation of novel quinazolinyl-diaryl urea derivatives as potential anticancer agents” (Eur J Med Chem, 2016)
Activity calls are given as the source filed them. The calls are words filed in the database; no cut-off is given here.

Assays:
A549 [1] = assay: Induction of apoptosis in human A549 cells assessed as necrotic cells at 10 uM after 48 hrs by Annexin-V/Propidium iodide dual staining based flow cytometric analysis (reference value: 2.57 +/- 0.39%); type: functional
A549 [2] = assay: Cell cycle arrest in human A549 cells assessed as accumulation at S phase at 10 uM by propidium iodide staining based flow cytometric analysis (reference value: 23.41 +/- 2.19%); type: functional
A549 [3] = assay: Induction of apoptosis in human A549 cells assessed as early apoptotic cells at 10 uM after 6 hrs by Annexin-V-FITC/Propidium iodide staining based flow cytometric analysis (reference value: 3.83 +/- 0.49%); type: functional
A549 [4] = assay: Induction of apoptosis in human A549 cells assessed as downregulation of Bcl-2 expression at 10 uM after 48 hrs by Western blot analysis; type: functional, cell-based
A549 [5] = assay: Induction of apoptosis in human A549 cells assessed as increase in ROS production at 10 uM after 12 hrs by DCF staining based luminescence spectrometric analysis; type: functional, cell-based
[6] = Antiproliferative activity against human MGC803 cells by MTT assay; type: functional, cell-based; details: MGC-803
A549 [7] = assay: Induction of apoptosis in human A549 cells assessed as viable cells at 10 uM after 6 hrs by Annexin-V-FITC/Propidium iodide staining based flow cytometric analysis (reference value: 95.48 +/- 2.03%); type: functional; details: A549, 6 h, read-out: Activity
A549 [8] = assay: Induction of apoptosis in human A549 cells assessed as late apoptotic cells at 10 uM after 48 hrs by Annexin-V/Propidium iodide dual staining based flow cytometric analysis (reference value: 1.44 +/- 0.43%); type: functional
A549 [9] = assay: Induction of apoptosis in human A549 cells assessed as early apoptotic cells at 10 uM after 48 hrs by Annexin-V/Propidium iodide dual staining based flow cytometric analysis (reference value: 3.53 +/- 0.89%); type: functional
HepG2 = assay: Antiproliferative activity against human HepG2 cells by MTT assay; type: functional, cell-based
A549 [10] = assay: Induction of apoptosis in human A549 cells assessed as upregulation of caspase-8 expression at 10 uM after 48 hrs by Western blot analysis; type: functional, cell-based
A549 [11] = assay: Cell cycle arrest in human A549 cells assessed as accumulation at G0/G1 phase at 10 uM by propidium iodide staining based flow cytometric analysis (reference value: 63.82 +/- 2.66%); type: functional
A549 [12] = assay: Induction of apoptosis in human A549 cells assessed as upregulation of Bax expression at 10 uM after 48 hrs by Western blot analysis; type: functional, cell-based
[13] = target: RAF proto-oncogene serine/threonine-protein kinase (Homo sapiens) (UniProt P04049); details: A549, 10 uM
Chain of RAF proto-oncogene serine/threonine-protein kinase (Homo sapiens) (P04049 whole entry): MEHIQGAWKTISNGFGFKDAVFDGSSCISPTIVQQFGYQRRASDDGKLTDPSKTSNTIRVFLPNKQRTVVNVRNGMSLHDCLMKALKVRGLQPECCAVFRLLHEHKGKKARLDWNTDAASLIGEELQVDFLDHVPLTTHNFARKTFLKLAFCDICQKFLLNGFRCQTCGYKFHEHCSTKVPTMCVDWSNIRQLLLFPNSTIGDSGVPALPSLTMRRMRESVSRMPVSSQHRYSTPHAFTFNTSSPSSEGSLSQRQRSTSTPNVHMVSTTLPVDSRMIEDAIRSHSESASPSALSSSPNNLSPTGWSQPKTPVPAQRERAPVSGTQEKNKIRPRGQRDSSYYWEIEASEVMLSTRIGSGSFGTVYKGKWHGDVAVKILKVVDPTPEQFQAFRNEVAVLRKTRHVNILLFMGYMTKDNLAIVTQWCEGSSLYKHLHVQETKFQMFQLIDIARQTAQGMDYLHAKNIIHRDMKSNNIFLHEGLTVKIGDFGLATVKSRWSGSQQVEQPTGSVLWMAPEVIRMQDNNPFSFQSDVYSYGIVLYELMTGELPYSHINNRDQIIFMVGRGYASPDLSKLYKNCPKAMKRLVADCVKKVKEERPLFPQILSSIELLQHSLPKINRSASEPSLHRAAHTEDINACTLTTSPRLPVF
Description: Inhibition of C-Raf in human A549 cells at 10 uM after 48 hrs by Western blot analysis

A549 [14] = assay: Cell cycle arrest in human A549 cells assessed as accumulation at G2/M phase at 10 uM by propidium iodide staining based flow cytometric analysis (reference value: 12.77 +/- 1.55%); type: functional
A549 [15] = assay: Induction of apoptosis in human A549 cells assessed as necrotic cells at 10 uM after 6 hrs by Annexin-V-FITC/Propidium iodide staining based flow cytometric analysis (reference value: 0.28 +/- 0.09%); type: functional
A549 [16] = assay: Induction of apoptosis in human A549 cells assessed as upregulation of caspase-3 expression at 10 uM after 48 hrs by Western blot analysis; type: functional, cell-based
A549 [17] = assay: Induction of apoptosis in human A549 cells assessed as late apoptotic cells at 10 uM after 6 hrs by Annexin-V-FITC/Propidium iodide staining based flow cytometric analysis (reference value: 0.41 +/- 0.19%); type: functional
A549 [18] = assay: Induction of apoptosis in human A549 cells assessed as viable cells at 10 uM after 48 hrs by Annexin-V-FITC/Propidium iodide staining based flow cytometric analysis (reference value: 92.46 +/- 4.23%); type: functional; details: A549, 48 h, read-out: Activity
A549 [19] = assay: Antiproliferative activity against human A549 cells by MTT assay; type: functional, cell-based

Row | SMILES | IC50 (HepG2) [µM] | IC50 (A549 [19]) [µM] | IC50 [6] [µM] | further results
1 | CNC(=O)c1cc(Oc2ccc(NC(=O)Nc3ccc(Cl)c(C(F)(F)F)c3)cc2)ccn1 [SORAFENIB] | 9.14 | 13.6 | 7.99 | Activity (A549 [1]): 19.9%; Activity (A549 [2]): 5.79%; Activity (A549 [3]): 9.33%; Activity (A549 [4]): Active; Activity (A549 [5]): Active; viability at 10 µM (A549 [7]): 83.7%; Activity (A549 [8]): 6.38%; Activity (A549 [9]): 0.9%; Activity (A549 [10]): Active; Activity (A549 [11]): 90.27%; Activity (A549 [12]): Active; inhibition [13]: Active; Activity (A549 [14]): 3.93%; Activity (A549 [15]): 0.7%; Activity (A549 [16]): Active; Activity (A549 [17]): 6.23%; viability at 10 µM (A549 [18]): 72.8%
2 | COc1ccc(NC(=O)Nc2cccc(CNc3ncnc4ccccc34)c2)cc1 | > 50 | 29.3 | 27.3 | –
3 | Cc1ccccc1NC(=O)Nc1cccc(CNc2ncnc3ccccc23)c1 | > 50 | 40.2 | > 50 | –
4 | COc1cc2ncnc(NCc3cccc(NC(=O)Nc4cccc(C)c4)c3)c2cc1OC | 21.5 | 27.1 | 44.6 | –
5 | COc1cc2ncnc(NCc3cccc(NC(=O)Nc4cccc(Cl)c4)c3)c2cc1OC | 35.9 | 22.7 | > 50 | –
6 | COC(=O)c1ccccc1NC(=O)Nc1cccc(CNc2ncnc3ccccc23)c1 | > 50 | 29.4 | 9.63 | –
7 | COc1cc2ncnc(NCc3cccc(NC(=O)Nc4ccc(C)cc4)c3)c2cc1OC | > 50 | 12.9 | 34.2 | –
8 | O=C(Nc1cccc(CNc2ncnc3ccccc23)c1)Nc1ccccc1Cl | > 50 | 18 | > 50 | –
9 | COc1cc2ncnc(Nc3ccc(F)c(Cl)c3)c2cc1OCCCN1CCOCC1 [GEFITINIB] | – | – | – | Activity (A549 [1]): 11%; Activity (A549 [2]): 3.61%; Activity (A549 [3]): 5.81%; Activity (A549 [5]): Active; viability at 10 µM (A549 [7]): 88%; Activity (A549 [8]): 4.92%; Activity (A549 [9]): 1%; Activity (A549 [10]): Active; Activity (A549 [11]): 92.35%; Activity (A549 [14]): 4.04%; Activity (A549 [15]): 0.94%; Activity (A549 [16]): Active; Activity (A549 [17]): 5.27%; viability at 10 µM (A549 [18]): 83.1%
10 | COc1ccccc1NC(=O)Nc1cccc(CNc2ncnc3ccccc23)c1 | 17.4 | 30.8 | 39.3 | –
11 | COc1cc2ncnc(NCc3cccc(NC(=O)Nc4ccccc4C)c3)c2cc1OC | > 50 | 21.4 | > 50 | –
12 | O=C(Nc1ccc([N+](=O)[O-])cc1)Nc1cccc(CNc2ncnc3ccccc23)c1 | 24.6 | > 50 | 9.42 | –
13 | COc1cc2ncnc(NCc3cccc(NC(=O)Nc4ccccc4Cl)c3)c2cc1OC | 25.5 | 15.2 | 30.2 | –

Second part, led by results:

Row | IC50 (HepG2) [µM] | IC50 (A549 [19]) [µM] | SMILES | IC50 [6] [µM] | further results
14 | 36.6 | 16.9 | COc1cc2ncnc(NCc3cccc(NC(=O)Nc4ccc(F)cc4)c3)c2cc1OC | 42.1 | –
15 | 40 | 44.2 | O=C(Nc1cccc(CNc2ncnc3ccccc23)c1)Nc1cccc(C(F)(F)F)c1 | > 50 | –
16 | > 50 | 30.2 | Cc1cccc(NC(=O)Nc2cccc(CNc3ncnc4ccccc34)c2)c1 | 30.2 | –
17 | 34.2 | 35.3 | COc1cc2ncnc(NCc3cccc(NC(=O)Nc4cccc(C(F)(F)F)c4)c3)c2cc1OC | > 50 | –
18 | 18.8 | > 50 | COc1cc2ncnc(NCc3cccc(NC(=O)Nc4ccc([N+](=O)[O-])cc4)c3)c2cc1OC | 8.12 | –
19 | > 50 | 24.5 | COc1ccc(NC(=O)Nc2cccc(CNc3ncnc4cc(OC)c(OC)cc34)c2)cc1 | 12.3 | –
20 | 24.9 | 23.8 | COc1cc2ncnc(NCc3cccc(NC(=O)Nc4ccccc4F)c3)c2cc1OC | 10.3 | –
21 | > 50 | 24.9 | Cc1ccc(NC(=O)Nc2cccc(CNc3ncnc4ccccc34)c2)cc1 | 31.2 | –
22 | > 50 | > 50 | O=C(Nc1ccc(Cl)cc1)Nc1cccc(CNc2ncnc3ccccc23)c1 | 26.4 | –
23 | > 50 | > 50 | O=C(Nc1cccc(Cl)c1)Nc1cccc(CNc2ncnc3ccccc23)c1 | 19.2 | –
24 | > 50 | 30.4 | COc1cc2ncnc(NCc3cccc(NC(=O)Nc4ccc(Cl)cc4)c3)c2cc1OC | 44.2 | –
25 | 41.5 | 21 | O=C(Nc1ccc(F)cc1)Nc1cccc(CNc2ncnc3ccccc23)c1 | 44.3 | –
26 | > 50 | 18.4 | O=C(Nc1ccccc1)Nc1cccc(CNc2ncnc3ccccc23)c1 | 13.2 | –
27 | 19.7 | 17.1 | COc1cc2ncnc(NCc3cccc(NC(=O)Nc4ccccc4)c3)c2cc1OC | 10 | –
28 | 16.9 | 17.9 | CC(C)(C)c1ccc(NC(=O)Nc2cccc(CNc3ncnc4ccccc34)c2)cc1 | 7.47 | –
29 | 17.5 | 26.1 | O=C(Nc1cccc(CNc2ncnc3ccccc23)c1)Nc1ccccc1F | 33.4 | –
30 | 31.6 | 29.3 | COC(=O)c1ccccc1NC(=O)Nc1cccc(CNc2ncnc3cc(OC)c(OC)cc23)c1 | 8.98 | –
31 | 27.2 | 15.2 | COc1ccccc1NC(=O)Nc1cccc(CNc2ncnc3cc(OC)c(OC)cc23)c1 | 7.71 | –
